Experimental data published in ChEMBL document CHEMBL1201862, “PubChem BioAssay data set” (2004).
Activity calls are given as the source filed them.

What was measured:
[1] = target: T1, Coagulation factor XII (Homo sapiens, UniProt P00748); assay: FXIIa inhibitor potency, concentration-response, biochemical (AID 716); assay type: functional
T1 sequence (P00748 whole entry): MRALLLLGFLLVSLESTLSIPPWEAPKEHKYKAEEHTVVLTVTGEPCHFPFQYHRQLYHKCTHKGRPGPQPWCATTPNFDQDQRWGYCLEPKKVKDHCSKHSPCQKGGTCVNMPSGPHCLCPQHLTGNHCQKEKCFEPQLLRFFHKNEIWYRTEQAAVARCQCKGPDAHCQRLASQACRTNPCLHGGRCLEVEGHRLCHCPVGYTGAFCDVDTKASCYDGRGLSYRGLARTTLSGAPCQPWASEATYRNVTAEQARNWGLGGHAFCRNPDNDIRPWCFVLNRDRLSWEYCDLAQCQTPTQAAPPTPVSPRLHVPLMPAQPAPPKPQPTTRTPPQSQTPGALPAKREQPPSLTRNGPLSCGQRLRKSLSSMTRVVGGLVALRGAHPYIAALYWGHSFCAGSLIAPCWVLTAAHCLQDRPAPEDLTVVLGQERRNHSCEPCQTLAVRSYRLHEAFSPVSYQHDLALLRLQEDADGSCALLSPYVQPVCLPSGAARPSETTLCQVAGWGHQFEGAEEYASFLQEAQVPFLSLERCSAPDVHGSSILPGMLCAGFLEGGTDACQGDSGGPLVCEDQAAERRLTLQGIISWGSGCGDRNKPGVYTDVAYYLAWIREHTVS

[2] = target: T2, Voltage-gated N-type calcium channel alpha-1B subunit/Amyloid beta A4 precursor protein-binding family A member 1 (Homo sapiens, UniProt Q00975+Q02410); assay type: protein assay
[3] = target: Luciferin 4-monooxygenase (Photinus pyralis, UniProt P08659); assay: firefly luciferase enzyme inhibitors, dose response, biochemical, luminescence (AID 1891)
[4] = Luminescence Cell-Based Dose Confirmation HTS to Identify Inhibitors of Platelet Dense Granule Release. [Related pubchem assays: 1663 (Primary HTS), 1678 (Summary of Project)]; assay type: functional
[5] = target: T2, Voltage-gated N-type calcium channel alpha-1B subunit/Amyloid beta A4 precursor protein-binding family A member 1; assay type: protein assay; remark: listed apart in the source
[6] = target: T3, Sphingosine 1-phosphate receptor 4 (Homo sapiens, UniProt O95977); assay: Fluorescence dose response cell-based high throughput screening assay for antagonists of the Sphingosine 1-Phosphate Receptor 4 (S1P4). [Related pubchem assays: 1524 (Confirmation in triplicates.), 1510 (Primary screen.)]; assay type: functional
T3 sequence (O95977 whole entry): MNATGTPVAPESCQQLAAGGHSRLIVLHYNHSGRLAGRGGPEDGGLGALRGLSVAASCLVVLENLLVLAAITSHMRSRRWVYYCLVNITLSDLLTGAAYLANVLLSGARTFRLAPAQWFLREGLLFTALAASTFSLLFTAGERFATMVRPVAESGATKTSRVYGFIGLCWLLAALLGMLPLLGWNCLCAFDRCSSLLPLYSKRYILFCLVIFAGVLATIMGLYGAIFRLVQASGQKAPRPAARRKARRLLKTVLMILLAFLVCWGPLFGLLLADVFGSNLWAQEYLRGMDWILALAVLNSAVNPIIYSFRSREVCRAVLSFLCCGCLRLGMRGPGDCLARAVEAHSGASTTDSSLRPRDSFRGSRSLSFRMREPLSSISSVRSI

[7] = target: Sphingosine 1-phosphate receptor 1 (Homo sapiens, UniProt P21453); assay type: functional;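 further: Tango beta-arrestin reporter U2OS cells stimulated with S1P near its EC80; inhibitor potency meaning antagonism of receptor activation by the natural agonist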
[8] = test system: CHO-K1; assay: (§1) Counterscreen for antagonists of the orexin 1 receptor (OX1R; HCRTR1): Homogeneous time resolved fluorescence (HTRF)-based cell-based dose response assay to identify antagonists of the parental CHO-K1 cell line. [Related pubchem assays (depositor defined):AID434989, AID435008, AID463079, AID485270, AID492963, AID492964, AID492965, AID493232, AID504699, AID504701]; assay type: functional; settings: Cricetulus griseus
[9] = as §1, with “Fluorescence-based” for “Homogeneous time resolved fluorescence (HTRF)-based”, “cell-based high throughput” for “cell-based”, “CHO” for “CHO-K1”; assay type: functional
[10] = target: T4, Orexin/Hypocretin receptor type 1 (Homo sapiens, UniProt O43613); assay: Homogeneous Time Resolved Fluorescence (HTRF)-based cell-based high throughput dose response assay for antagonists of the orexin 1 receptor (OX1R; HCRTR1). [Related pubchem assays (depositor defined):AID434989, AID435008, AID463079, AID485270, AID492963, AID492964, AID492965, AID493232, AID504717, AID504718]; assay type: functional
T4 sequence (O43613 whole entry): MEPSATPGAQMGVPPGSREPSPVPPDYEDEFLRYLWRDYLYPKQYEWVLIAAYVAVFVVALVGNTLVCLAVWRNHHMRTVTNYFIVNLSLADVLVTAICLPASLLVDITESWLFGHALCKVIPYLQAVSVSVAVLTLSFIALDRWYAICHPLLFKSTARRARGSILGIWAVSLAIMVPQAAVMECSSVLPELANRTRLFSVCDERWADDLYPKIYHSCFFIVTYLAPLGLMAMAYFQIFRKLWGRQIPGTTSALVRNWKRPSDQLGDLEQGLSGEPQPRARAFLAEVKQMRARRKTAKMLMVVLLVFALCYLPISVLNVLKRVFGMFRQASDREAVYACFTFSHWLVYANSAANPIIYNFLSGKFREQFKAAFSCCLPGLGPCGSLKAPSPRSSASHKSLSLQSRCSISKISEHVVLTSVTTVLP

[11] = target: T4, Orexin/Hypocretin receptor type 1; assay: Fluorescence-based cell-based high throughput dose response assay for antagonists of the orexin 1 receptor (OX1R; HCRTR1). [Related pubchem assays (depositor defined):AID434989, AID435008, AID463079, AID485270, AID492963, AID492964, AID492965, AID493232, AID504717, AID504718]; assay type: functional
[12] = target: Heat shock protein HSP 90-alpha (Homo sapiens, UniProt P07900); assay type: functional, organism-based
[13] = Fluorescence-based cell-based high throughput dose response assay for inhibitors of the interaction of nucleotide-binding oligomerization domain containing 2 (NOD2) and the receptor-interacting serine-threonine kinase 2 (RIPK2).; assay type: functional; settings: Homo sapiens
[14] = target: Beta Lactamase (Pseudomonas aeruginosa, UniProt Q932Y6); assay: beta-lactamase reporter inhibitor potency, dose response, artefact control for NOD2-RIPK2 interaction inhibitor project, BLA reporter cells, FRET fluorescence (AID 651552); assay type: functional, cell-based
Beta Lactamase, sequence (Q932Y6 whole entry): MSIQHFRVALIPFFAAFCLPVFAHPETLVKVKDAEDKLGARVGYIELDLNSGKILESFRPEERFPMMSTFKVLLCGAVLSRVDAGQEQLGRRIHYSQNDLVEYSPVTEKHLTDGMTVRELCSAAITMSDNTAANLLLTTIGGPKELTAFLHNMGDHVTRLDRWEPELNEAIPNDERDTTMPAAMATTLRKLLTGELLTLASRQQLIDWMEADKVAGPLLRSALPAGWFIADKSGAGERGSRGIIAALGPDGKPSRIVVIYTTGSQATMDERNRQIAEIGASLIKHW

T2 sequence (Q00975 whole entry): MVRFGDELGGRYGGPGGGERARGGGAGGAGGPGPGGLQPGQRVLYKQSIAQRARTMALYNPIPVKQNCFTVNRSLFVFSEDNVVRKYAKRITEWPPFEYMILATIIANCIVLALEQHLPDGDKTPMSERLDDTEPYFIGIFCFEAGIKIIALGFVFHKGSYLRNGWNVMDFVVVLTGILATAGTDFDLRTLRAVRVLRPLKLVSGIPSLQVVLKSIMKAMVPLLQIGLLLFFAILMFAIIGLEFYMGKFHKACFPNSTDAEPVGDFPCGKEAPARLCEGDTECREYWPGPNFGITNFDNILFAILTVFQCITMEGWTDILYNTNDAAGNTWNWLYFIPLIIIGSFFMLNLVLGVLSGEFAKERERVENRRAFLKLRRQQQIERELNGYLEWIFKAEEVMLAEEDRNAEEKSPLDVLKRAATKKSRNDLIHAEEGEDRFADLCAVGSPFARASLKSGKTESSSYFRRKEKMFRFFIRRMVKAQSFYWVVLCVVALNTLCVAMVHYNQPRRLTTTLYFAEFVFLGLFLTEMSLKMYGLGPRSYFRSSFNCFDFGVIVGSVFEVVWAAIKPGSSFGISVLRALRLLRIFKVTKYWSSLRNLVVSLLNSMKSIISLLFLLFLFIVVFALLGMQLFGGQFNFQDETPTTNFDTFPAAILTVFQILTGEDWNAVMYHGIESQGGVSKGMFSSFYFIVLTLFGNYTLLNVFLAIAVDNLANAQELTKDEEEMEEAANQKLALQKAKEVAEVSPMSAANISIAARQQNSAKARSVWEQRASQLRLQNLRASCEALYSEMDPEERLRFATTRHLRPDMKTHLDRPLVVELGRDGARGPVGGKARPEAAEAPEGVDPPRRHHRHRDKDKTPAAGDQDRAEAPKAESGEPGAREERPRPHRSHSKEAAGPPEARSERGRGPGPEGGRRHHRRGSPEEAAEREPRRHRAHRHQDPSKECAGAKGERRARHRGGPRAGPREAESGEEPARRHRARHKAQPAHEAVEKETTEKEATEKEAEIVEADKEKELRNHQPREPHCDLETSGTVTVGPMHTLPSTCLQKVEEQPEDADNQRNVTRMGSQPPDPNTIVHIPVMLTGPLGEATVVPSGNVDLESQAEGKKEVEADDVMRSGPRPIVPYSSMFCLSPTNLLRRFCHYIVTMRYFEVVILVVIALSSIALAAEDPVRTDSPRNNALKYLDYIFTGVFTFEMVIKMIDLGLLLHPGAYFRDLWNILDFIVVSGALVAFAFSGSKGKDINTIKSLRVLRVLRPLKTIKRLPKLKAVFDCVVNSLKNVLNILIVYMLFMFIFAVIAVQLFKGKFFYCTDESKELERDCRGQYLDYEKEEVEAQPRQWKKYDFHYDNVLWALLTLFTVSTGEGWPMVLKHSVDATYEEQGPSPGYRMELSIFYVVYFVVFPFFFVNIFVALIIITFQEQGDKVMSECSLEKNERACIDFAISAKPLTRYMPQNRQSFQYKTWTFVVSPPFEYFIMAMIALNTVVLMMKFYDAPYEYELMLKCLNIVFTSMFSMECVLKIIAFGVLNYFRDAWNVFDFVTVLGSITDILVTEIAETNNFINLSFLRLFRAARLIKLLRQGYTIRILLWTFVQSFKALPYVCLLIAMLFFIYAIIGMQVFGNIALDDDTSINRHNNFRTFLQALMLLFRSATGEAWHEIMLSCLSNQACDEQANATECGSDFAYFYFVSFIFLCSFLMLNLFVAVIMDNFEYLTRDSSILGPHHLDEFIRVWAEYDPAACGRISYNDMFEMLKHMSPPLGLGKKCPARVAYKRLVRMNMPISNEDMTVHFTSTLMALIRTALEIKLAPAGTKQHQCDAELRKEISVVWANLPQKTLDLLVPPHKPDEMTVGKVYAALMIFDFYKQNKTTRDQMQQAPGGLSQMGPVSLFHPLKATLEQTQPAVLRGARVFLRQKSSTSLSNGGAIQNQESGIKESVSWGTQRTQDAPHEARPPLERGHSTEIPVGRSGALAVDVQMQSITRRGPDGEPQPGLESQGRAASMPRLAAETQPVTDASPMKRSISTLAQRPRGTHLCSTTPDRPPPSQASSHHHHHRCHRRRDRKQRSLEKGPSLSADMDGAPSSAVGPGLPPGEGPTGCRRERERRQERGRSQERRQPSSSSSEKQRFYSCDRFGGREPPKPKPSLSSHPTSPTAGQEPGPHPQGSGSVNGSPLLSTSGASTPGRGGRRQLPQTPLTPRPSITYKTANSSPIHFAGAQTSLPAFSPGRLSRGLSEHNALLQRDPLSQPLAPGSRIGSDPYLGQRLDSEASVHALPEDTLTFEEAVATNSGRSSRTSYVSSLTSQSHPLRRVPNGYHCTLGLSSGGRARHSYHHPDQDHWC
T2 sequence (Q02410 whole entry): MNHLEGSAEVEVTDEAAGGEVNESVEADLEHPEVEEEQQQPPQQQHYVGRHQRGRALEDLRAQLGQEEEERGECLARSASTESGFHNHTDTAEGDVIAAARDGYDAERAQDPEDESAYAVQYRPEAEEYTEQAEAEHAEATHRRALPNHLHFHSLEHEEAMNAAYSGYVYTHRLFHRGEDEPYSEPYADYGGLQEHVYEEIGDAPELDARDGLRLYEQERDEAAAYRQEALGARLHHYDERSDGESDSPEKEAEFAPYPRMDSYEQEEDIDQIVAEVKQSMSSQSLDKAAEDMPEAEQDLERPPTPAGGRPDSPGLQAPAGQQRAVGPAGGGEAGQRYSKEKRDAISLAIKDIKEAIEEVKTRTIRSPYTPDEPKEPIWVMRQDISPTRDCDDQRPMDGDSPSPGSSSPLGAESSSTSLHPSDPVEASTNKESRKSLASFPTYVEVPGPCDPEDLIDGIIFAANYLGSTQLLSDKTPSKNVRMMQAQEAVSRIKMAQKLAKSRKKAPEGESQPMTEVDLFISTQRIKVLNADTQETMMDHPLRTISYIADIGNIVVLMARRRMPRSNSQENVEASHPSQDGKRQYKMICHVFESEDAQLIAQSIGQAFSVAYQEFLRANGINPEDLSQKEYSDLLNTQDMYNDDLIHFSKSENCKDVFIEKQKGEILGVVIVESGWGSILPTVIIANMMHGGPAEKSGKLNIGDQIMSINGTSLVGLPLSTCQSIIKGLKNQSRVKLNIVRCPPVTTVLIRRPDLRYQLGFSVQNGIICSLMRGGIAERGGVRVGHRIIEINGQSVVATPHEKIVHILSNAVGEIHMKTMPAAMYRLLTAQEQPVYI
Luciferin 4-monooxygenase, sequence (P08659 whole entry): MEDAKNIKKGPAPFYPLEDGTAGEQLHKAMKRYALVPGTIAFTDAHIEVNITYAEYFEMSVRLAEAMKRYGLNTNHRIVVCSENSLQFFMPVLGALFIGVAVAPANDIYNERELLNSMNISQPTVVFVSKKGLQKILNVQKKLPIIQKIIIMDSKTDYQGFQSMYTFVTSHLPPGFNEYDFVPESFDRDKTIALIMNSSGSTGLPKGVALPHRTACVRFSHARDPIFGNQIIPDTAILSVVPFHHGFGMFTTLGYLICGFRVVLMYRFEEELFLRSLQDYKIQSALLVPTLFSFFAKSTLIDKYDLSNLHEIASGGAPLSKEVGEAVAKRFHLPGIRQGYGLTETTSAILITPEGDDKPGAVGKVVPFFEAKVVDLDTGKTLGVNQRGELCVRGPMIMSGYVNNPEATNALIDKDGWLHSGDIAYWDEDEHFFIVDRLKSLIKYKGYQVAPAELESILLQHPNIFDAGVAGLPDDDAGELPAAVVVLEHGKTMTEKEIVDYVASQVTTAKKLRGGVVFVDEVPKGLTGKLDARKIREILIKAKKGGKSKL
Sphingosine 1-phosphate receptor 1, sequence (P21453 whole entry): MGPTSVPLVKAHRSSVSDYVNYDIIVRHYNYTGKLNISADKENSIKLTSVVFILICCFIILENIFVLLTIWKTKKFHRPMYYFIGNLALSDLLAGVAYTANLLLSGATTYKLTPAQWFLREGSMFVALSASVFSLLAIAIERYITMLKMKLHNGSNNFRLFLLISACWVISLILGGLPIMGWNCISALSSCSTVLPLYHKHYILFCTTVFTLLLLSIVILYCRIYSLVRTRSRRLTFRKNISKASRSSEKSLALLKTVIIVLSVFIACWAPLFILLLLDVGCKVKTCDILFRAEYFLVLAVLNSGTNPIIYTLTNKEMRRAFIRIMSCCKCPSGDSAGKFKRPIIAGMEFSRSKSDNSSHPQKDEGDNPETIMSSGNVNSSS

IC50 [1]	SMILES	IC50 [2]	EC50 [3]	EC50 [4]	IC50 [5]	IC50 [6]	IC50 [7]	IC50 [8]	IC50 [9]	IC50 [10]	IC50 [11]	AC50 [12]	IC50 [13]	IC50 [14]
> 50 µM (inactive)	CC(C)NC(=O)CCCc1cn(C)c2ccccc12	–	–	–	–	–	–	–	–	–	–	–	–	–
–	O=C1C=C(c2ccc(Cl)cc2)C(=O)N1Nc1ccccc1	21.1 µM (active)	> 112 µM (not active)	21.5 µM (active)	> 50 µM (inactive)	1.95 µM (active)	13.6 µM (not active)	50.7 µM (inactive)	4.98 µM (active)	3.73 µM (active)	3.12 µM (active)	0.267 µM (active)	1.03 µM (active)	13 µM (inactive)
